Test results taken from patent publication US8017350B2, “Glimepiride- and insulin-induced glycosylphosphatidylinositol-specific phospholipase C regulation” (Sanofi-Aventis Deutschland GmbH, priority 2004, dated 2011).

System: Hormone-sensitive lipase (HSL)
Assay: hormone-sensitive lipase assay (radiolabeled triolein emulsion)
Type: biochemical
Settings: 50 μM
Experimental: Hormone-sensitive lipase (HSL) and lipoprotein lipase (LPL) were measured using a radiolabeled triolein droplet emulsion as described in “Vertesy et al., (2002) Journal Antibiotics 55:480-494”. Pancreatic lipase (PL) was determined by incubation of 0.25 mmol tributyrin in 2 ml of 5 mM Tris/HCl (pH 6.5), 6 mM sodium taurodeoxycholate, 150 mM NaCl, 1 mM CaCl2 with porcine PL and colipase in the same buffer using a recording pH stat (stirring at 1000 rpm at 25° C.) with the pH adjusted to 6.5. PC-PLC was assayed by incubation of 0.2 ml of 10 mM dipalmitoyllecithin, 0.1 ml of 10 mM SDC and 0.1 ml of 0.03 M CaCl2 with bacterial PC-PLC (in 50 mM Tris/HCl, pH 7.5, 0.1% BSA) for 10 min at 37° C. The reaction was terminated by addition of 0.1 ml of 50% TCA and subsequently of 2.5 ml of […]. After centrifugation (1500×g, 15 min), 0.2-ml portions of the upper methanol/water phase (˜1.33 ml) were removed, supplemented with 0.5 ml of 60% HClO4, then heated at 170° C. for 1 h and finally analyzed for inorganic phosphate. Mammalian PI-PLC was measured by incubation of 0.1 ml of 10 mM PI, 0.1 ml of 0.8% sodium deoxycholate, 0.1% BSA, 0.2 ml of 100 mM sodium borate (pH 7.5) and rat liver PI-PLC for 20 min at 37° C. The reaction was terminated and further processed as described for the PC-PLC. […] Radioactive phosphatidic acid was detected by phosphorimaging. […]

## CCCCCCCCCCCCP1(=O)O[C@@H]2[C@H](O)[C@@H](O)[C@H](O)[C@@H](O)[C@@H]2O1 (stereo partly shown) [GPI-2350, myo-inositol-1,2-cyclo-dodecylphosphonic acid]
  effect on HSL: not significantly affected
